Read-outs that look alike come from different tables or passages of the source.
Key:
[1] = Metabolic stability in vitro, dog liver microsomes; assay type: in vitro ADME; details: maximal oral bioavailability calculated from microsomal half-life, 1 μM compound
Protocol: (§1) The metabolic stability of test compounds in vitro was determined by incubating them at 1 μM with a suspension of liver microsomes in 100 mM phosphate buffer, pH7.4 (NaH2PO4xH2O+Na2HPO4x2H2O) at a protein concentration of 0.5 mg/mL and at 37° C. The reaction was activated by adding a co-factor mix containing 1.2 mg NADP, 3 IU glucose-6-phosphate dehydrogenase, 14.6 mg glucose-6-phosphate and 4.9 mg MgCl2 in phosphate buffer, pH 7.4. Organic solvent in the incubations was limited to <0.2% dimethylsulfoxide (DMSO) and <1% methanol. During incubation, the microsomal suspensions were continuously shaken and aliquots were taken at 2, 8, 16, 30, 45 and 60 min, to which equal volumes of cold methanol were immediately added. Samples were frozen at −20° C. over night, subsequently centrifuged for 15 minutes at 3000 rpm and the supernatant was analyzed with an Agilent 1200 HPLC-system with LCMS/MS detection.
(§2) The half-life of a test compound was determined from the concentration-time plot. From the half-life the intrinsic clearances were calculated. Together with the additional parameters liver blood flow, specific liver weight and microsomal protein content the hepatic in vivo blood clearance (CL) and the maximal oral bioavailability (Fmax) were calculated for the different species. […]

[2] = system: HeLa human cervical tumor cells; assay: HeLa cell proliferation assay (crystal violet); assay type: cell-based; details: 96 h, 4 days incubation, crystal violet staining, read-out: Inhibition of cell proliferation, cell Line: HeLa IC50
Protocol: Cultivated tumor cells (MCF7, hormone dependent human mammary carcinoma cells, ATCC HTB22; NCI-H460, human non-small cell lung carcinoma cells, ATCC HTB-177; DU 145, hormone-independent human prostate carcinoma cells, ATCC HTB-81; HeLa-MaTu, human cervical carcinoma cells, EPO-GmbH, Berlin; HeLa-MaTu-ADR, multidrug-resistant human cervical carcinoma cells, EPO-GmbH, Berlin; HeLa human cervical tumor cells, ATCC CCL-2; B16F10 mouse melanoma cells, ATCC CRL-6475) were plated at a density of 5000 cells/well (MCF7, DU145, HeLa-MaTu-ADR), 3000 cells/well (NCI-H460, HeLa-MaTu, HeLa), or 1000 cells/well (B16F10) in a 96-well multititer plate in 200 μl of their respective growth medium supplemented 10% fetal calf serum. […] Cell proliferation was determined by staining the cells with crystal violet: the cells were fixed by adding 20 μl/measuring point of an 11% glutaric aldehyde solution for 15 minutes at room temperature. […] The extinction of the stained cells was determined by photometry at a wavelength of 595 nm. The change of cell number, in percent, was calculated by normalization of the measured values to the extinction values of the zero-point plate (=0%) and the extinction of the untreated (0 μm) cells (=100%). The […] values were determined by means of a 4 parameter fit using the company's own software. […]

human kinase Mps-1 = target: T1, human kinase Mps-1 (Homo sapiens, UniProt P33981); assay: Mps-1 kinase assay (TR-FRET); assay type: biochemical
T1 construct: N-terminally GST-tagged human full length recombinant Mps-1 kinase; GST (N); purchased Invitrogen, Karslruhe, Germany PV4071
T1 sequence (P33981 1-857): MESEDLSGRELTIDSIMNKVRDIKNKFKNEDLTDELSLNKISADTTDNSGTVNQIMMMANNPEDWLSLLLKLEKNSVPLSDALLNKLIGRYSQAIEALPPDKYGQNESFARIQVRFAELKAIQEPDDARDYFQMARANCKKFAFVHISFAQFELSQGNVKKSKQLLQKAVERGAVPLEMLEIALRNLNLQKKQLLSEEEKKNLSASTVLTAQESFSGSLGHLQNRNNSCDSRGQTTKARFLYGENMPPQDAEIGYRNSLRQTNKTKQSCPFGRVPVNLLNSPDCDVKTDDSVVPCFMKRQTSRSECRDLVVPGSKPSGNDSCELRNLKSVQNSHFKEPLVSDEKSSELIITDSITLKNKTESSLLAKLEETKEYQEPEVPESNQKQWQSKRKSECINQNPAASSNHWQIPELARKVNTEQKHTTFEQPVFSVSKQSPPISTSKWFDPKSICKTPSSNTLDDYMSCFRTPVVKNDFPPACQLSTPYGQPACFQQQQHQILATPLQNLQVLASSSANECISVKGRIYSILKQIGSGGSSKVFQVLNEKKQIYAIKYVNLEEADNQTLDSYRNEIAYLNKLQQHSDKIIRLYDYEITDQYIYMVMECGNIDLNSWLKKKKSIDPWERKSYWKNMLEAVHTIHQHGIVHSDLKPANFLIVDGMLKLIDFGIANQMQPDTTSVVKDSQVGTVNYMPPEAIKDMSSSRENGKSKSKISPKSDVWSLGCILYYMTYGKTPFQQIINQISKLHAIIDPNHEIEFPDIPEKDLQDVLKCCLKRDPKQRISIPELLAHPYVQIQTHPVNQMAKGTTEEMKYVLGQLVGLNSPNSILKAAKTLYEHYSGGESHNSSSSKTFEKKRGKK
Protocol: The human kinase Mps-1 phosphorylates a biotinylated substrate peptide. Detection of the phosphorylated product is achieved by time-resolved fluorescence resonance energy transfer (TR-FRET) from Europium-labelled anti-phospho-Serine/Threonine antibody as donor to streptavidin labelled with cross-linked allophycocyanin (SA-XLent) as acceptor. Compounds are tested for their inhibition of the kinase activity.
N-terminally GST-tagged human full length recombinant Mps-1 kinase (purchased from Invitrogen, Karslruhe, Germany, cat. no PV4071) was used. […]
The resulting mixture was incubated 1 h at 22° C. to allow the binding of the phosphorylated peptide to the anti-phospho(Ser/Thr)-Europium-antibody. Subsequently the amount of phosphorylated substrate was evaluated by measurement of the resonance energy transfer from the Europium-labelled anti-phospho(Ser/Thr) antibody to the Streptavidin-XLent. Therefore, the fluorescence emissions at 620 nm and 665 nm after excitation at 350 nm was measured in a Viewlux TR-FRET reader (PerkinElmer LAS, Rodgau-Jugesheinn, Germany). The “blank-corrected normalized ratio” (a Viewlux specific readout, similar to the traditional ratio of the emissions at 665 nm and at 622 nm, in which blank and Eu-donor crosstalk are subtracted from the 665 nm signal before the ratio is calculated) was taken as the measure for the amount of phosphorylated substrate. […]

[3] = Metabolic stability in vitro, rat liver microsomes; assay type: in vitro ADME; details: maximal oral bioavailability calculated from microsomal half-life, 1 μM compound
Protocol: as §1, §2

[4] = Metabolic stability in vitro, human liver microsomes; assay type: in vitro ADME; details: maximal oral bioavailability calculated from microsomal half-life, 1 μM compound
Protocol: as §1, §2

SMILES: COc1cc2c(cc1Nc1nc3ccc(-c4ccc(NC(=O)[C@H](C)c5ccc(F)cc5)cc4)cn3n1)CCS2(=O)=O [Example01.01, (2R)-2-(4-fluorophenyl)-N-(4-{2-[(6-methoxy-1,1-dioxido-2,3-dihydro-1-benzothiophen-5-yl)amino][1,2,4]triazolo[1,5-a]pyridin-6-yl}phenyl)propanamide]
- Dog liver microsomes; Fmax [%] [1]: 65%
- IC50 [2]: < 400 nM
- IC50 (human kinase Mps-1; 10 μM ATP, read-out: Mps-1 Inhibition, IC50 (Assay with 10 μM ATP)): < 1 nM
- IC50 (human kinase Mps-1; 2 mM ATP, read-out: Mps-1 Inhibition, IC50 (Assay with 2 mM ATP)): 1.6 nM
- Rat liver microsomes; Fmax [%] [3]: 96%
- Human liver microsomes; Fmax [%] [4]: 83%

Reference: US20160264568A1, “SUBSTITUTED TRIAZOLOPYRIDINES HAVING ACTIVITY AS MPS-1 INHIBITORS” (BAYER PHARMA AKTIENGESELLSCHAFT, priority 2013, published 2016)
